Measurements reported in US12643887B2, “Heterocyclic derivatives with cardiomyocyte proliferation activity for treatment of heart diseases” (Tongji University, priority 2019, dated 2026).
pIC50: −log10 of the molar value.

What was measured:
human GSK3 beta = biological target: T1, human GSK3 beta (Homo sapiens, UniProt P49841); assay: GSK3 beta enzyme assay (ADP-Glo); format: biochemical; conditions: ATP 25 μM, read-out: GSK3b IC50
T1 construct: Recombinant full-length human GSK3 beta (expressed in Sf9 insect cells with an N-terminal His tag); His (N); purchased SignalChem G09-10H; host or cells: Sf9 insect cells
Experimental: 1. GSK3 Beta Enzyme Assay
The ability of compounds to inhibit human GSK3 beta kinase activities was determined using a commercially available ADP-Glo™ Kinase Assay kit (Promega, Cat #V9102) according to the manufacturer's protocol. The ADP-Glo™ Kinase Assay is a luminescent ADP detection assay that provides a universal, homogeneous, high-throughput screening method to measure kinase activity by quantifying the amount of ADP produced during a kinase reaction. The ADP-Glo™ Kinase Assay can be used to monitor the activity of virtually any ADP-generating enzymes (e.g., kinases or ATPases).
Recombinant full-length human GSK3 beta (expressed in Sf9 insect cells with an N-terminal His tag) was purchased from SignalChem (Cat #G09-10H). The GSK3 substrate peptide (sequence: […](pS)EDEEE) was purchased from SignalChem (Cat #G50-58). This assay, run in a 384-well plate format, is a generic method for measuring kinase activities using an ADP-Glo Kinase Assay Kit. The basic assay procedure involves two steps: (1) Enzymatic step: inhibitors are incubated with the kinase and then ATP (included in the ADP-Glo Kinase Assay Kit) and the GSK3 substrate peptide are added to start the enzymatic reaction; (2) Detection step: after the kinase reaction, first ADP-Glo™ Reagent is added to terminate the kinase reaction and deplete the remaining ATP. Second, the Kinase Detection Reagent is added to simultaneously convert ADP to ATP and allow the newly synthesized ATP to be measured using a luciferase/luciferin reaction. The light generated is measured using a luminometer.
(§1) Briefly, GSK3 beta (4 nM) in the enzymatic buffer solutions (40 mM Tris, pH 7.5, 20 mM MgCl2, 0.1 mg/ml BSA, 50 μM DTT) were mixed with various concentrations of inhibitors (dissolved in 100% DMSO). These solutions were incubated for 30 minutes at 25° C., and subsequently a mixture of substrate peptide and ATP was added with the final peptide and ATP concentrations at 13 μM and 25 μM, respectively. The final reaction mixture of enzyme-substrate-ATP-compound was incubated for 60 minutes at 25° C.
Afterwards ADP-Glo™ Reagent was added and the mixture was incubated at 25° C. for 60 minutes. Then Kinase Detection Reagent was added and the final mixture was incubated at 25° C. for 60 minutes. The luminescence signal of the final solution was measured on an Envision instrument (PerkinElmer). The percent (%) inhibition at each concentration of a compound is calculated relative to the luminescence signal in the Max and Min control wells contained within each assay plate. […] The concentrations and percent inhibition values for a test compound are plotted and the concentration of the compound required to achieve 50% inhibition (IC50) is determined with a four-parameter logistic dose response equation.

human HIPK2 = biological target: T2, human HIPK2 (Homo sapiens, UniProt Q9H2X6); assay: HIPK2 enzyme assay (ADP-Glo); format: biochemical; conditions: ADP-Glo, ATP 5 μM; read-out: HIPK2 IC50
T2 construct: Recombinant human HIPK2 (1-640); GST (N); purchased SignalChem H04-11BG; host or cells: Sf9 insect cells
Experimental: The ability of compounds to inhibit human HIPK2 kinase activities was determined using a commercially available ADP-Glo™ Kinase Assay kit (Promega, Cat #V9102) according to the manufacturer's protocol.
Recombinant human HIPK2 (1-640) (expressed in Sf9 insect cells with an N-terminal GST tag) was purchased from SignalChem (Cat #H04-11BG). Recombinant full length human MBP (expressed in E. Coli cells with an N-terminal GST tag) was purchased from SignalChem (Cat #M42-54G). This assay, run in a 384-well plate format, is a generic method for measuring kinase activities using an ADP-Glo Kinase Assay Kit. The basic assay procedure involves two steps: (1) Enzymatic step: inhibitors are incubated with the kinase and then ATP (included in the ADP-Glo Kinase Assay Kit) and the MBP protein are added to start the enzymatic reaction; (2) Detection step: after the kinase reaction, first ADP-Glo™ Reagent is added to terminate the kinase reaction and deplete the remaining ATP. Second, the Kinase Detection Reagent is added to simultaneously convert ADP to ATP and allow the newly synthesized ATP to be measured using a luciferase/luciferin reaction. The light generated is measured using a luminometer.
as §1, with “Briefly, HIPK2 (1” for “Briefly, GSK3 beta (4”, “at 0.05 mg/ml” for “at 13 μM”, “and 5” for “and 25”, “for 90” for “for 60”
Afterwards ADP-Glo™ Reagent was added and the mixture was incubated at 25° C. for 60 minutes. Then Kinase Detection Reagent was added, and the final mixture was incubated at 25° C. for 60 minutes. The luminescence signal of the final solution was measured on an Envision instrument (PerkinElmer). The percent (%) inhibition at each concentration of a compound is calculated relative to the luminescence signal in the Max and Min control wells contained within each assay plate. […] The concentrations and percent inhibition values for a test compound are plotted and the concentration of the compound required to achieve 50% inhibition (IC50) is determined with a four-parameter logistic dose response equation.

T1 sequence (P49841 whole entry): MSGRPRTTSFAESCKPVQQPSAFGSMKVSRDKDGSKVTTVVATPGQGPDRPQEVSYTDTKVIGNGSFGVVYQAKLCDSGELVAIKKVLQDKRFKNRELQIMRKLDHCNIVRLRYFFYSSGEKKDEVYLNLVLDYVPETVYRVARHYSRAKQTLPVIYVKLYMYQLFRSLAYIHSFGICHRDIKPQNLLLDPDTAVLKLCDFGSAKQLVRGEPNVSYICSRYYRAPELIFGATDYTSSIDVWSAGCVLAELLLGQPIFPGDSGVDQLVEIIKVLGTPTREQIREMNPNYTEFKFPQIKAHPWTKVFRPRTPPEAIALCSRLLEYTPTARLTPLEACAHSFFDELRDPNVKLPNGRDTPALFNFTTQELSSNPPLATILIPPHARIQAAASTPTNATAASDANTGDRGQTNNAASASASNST
T2 sequence (Q9H2X6 1-640): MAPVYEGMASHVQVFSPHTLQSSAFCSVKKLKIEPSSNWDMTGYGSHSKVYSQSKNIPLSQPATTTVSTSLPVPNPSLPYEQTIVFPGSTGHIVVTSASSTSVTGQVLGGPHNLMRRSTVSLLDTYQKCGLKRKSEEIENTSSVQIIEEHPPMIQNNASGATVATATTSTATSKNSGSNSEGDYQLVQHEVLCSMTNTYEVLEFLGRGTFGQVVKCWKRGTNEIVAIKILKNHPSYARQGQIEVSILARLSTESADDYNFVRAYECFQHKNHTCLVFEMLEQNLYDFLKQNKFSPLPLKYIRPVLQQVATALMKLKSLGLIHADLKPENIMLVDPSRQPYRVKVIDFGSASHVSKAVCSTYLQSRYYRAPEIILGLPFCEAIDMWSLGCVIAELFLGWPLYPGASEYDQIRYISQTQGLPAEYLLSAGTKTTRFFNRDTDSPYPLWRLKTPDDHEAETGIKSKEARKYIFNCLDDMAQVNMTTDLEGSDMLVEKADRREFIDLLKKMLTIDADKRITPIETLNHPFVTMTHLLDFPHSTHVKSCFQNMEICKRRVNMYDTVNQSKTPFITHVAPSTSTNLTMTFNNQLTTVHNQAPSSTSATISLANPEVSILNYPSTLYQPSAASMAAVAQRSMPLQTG

pIC50 (human GSK3 beta)	pIC50 (human HIPK2)	SMILES
< 5.00	> 7.00	O=C1NC(Nc2ccc3ncsc3c2)=N/C1=C\c1ccc2ncsc2c1 [Example 48, (Z)-2-(benzo[d]thiazol-6-ylamino)-5-(benzo[d]thiazol-6-ylmethylene)-3,5-dihydro-4H-imidazol-4-one]
< 5.00	< 5.00	O=C1NC(Nc2ccc3ncsc3c2)=N/C1=C\c1ccc2c(c1)OCO2 [Example 47, (Z)-5-(benzo[d][1,3]dioxol-5-ylmethylene)-2-(benzo[d]thiazol-6-ylamino)-3,5-dihydro-4H-imidazol-4-one]
< 5.00	6.00 to 7.00	CN(C1=N/C(=C\c2ccc3ncsc3c2)C(=O)N1)c1ccc(Cl)cc1 [Example 24, (Z)-5-(benzo[d]thiazol-6-ylmethylene)-2-((4-chlorophenyl)(methyl)amino)-3,5-dihydro-4H-imidazol-4-one]
< 5.00	< 5.00	O=C1NC(Nc2ccc3ncsc3c2)=N/C1=C\c1ccc2c(c1)OCCO2 [Example 74, (Z)-2-(benzo[d]thiazol-6-ylamino)-5-((2,3-dihydrobenzo[b][1,4]dioxin-6-yl)methylene)-3,5-dihydro-4H-imidazol-4-one]
6.00 to 7.00	6.00 to 7.00	O=C1NC(Nc2ccc3nccnc3c2)=N/C1=C\c1ccc2ncsc2c1 [Example 82, (Z)-5-(benzo[d]thiazol-6-ylmethylene)-2-(quinoxalin-6-ylamino)-3,5-dihydro-4H-imidazol-4-one]
6.00 to 7.00	> 7.00	O=C1NC(Nc2ccc3c(c2)OCCO3)=N/C1=C\c1ccc2ncsc2c1 [Example 81, (Z)-5-(benzo[d]thiazol-6-ylmethylene)-2-((2,3-dihydrobenzo[b][1,4]dioxin-6-yl)amino)-3,5-dihydro-4H-imidazol-4-one]
5.00 to 6.00	< 5.00	CN(C1=N/C(=C\c2ccc3ncsc3c2)C(=O)N1)c1ccc2ncsc2c1 [Example 83, (Z)-2-(benzo[d]thiazol-6-yl(methyl)amino)-5-(benzo[d]thiazol-6-ylmethylene)-3,5-dihydro-4H-imidazol-4-one]
< 5.00	< 5.00	O=C1NC(Nc2ccc3ncsc3c2)=N/C1=C\c1ccc2cccnc2c1 [Example 60, (Z)-2-(benzo[d]thiazol-6-ylamino)-5-(quinolin-7-ylmethylene)-3,5-dihydro-4H-imidazol-4-one]
< 5.00	< 5.00	O=C1NC(NC23CC4CC(CC(C4)C2)C3)=N/C1=C\c1ccc2scnc2c1 [Example 50, (Z)-2-(adamantan-1-ylamino)-5-(benzo[d]thiazol-5-ylmethylene)-3,5-dihydro-4H-imidazol-4-one]
< 5.00	< 5.00	O=C1NC(Nc2ccccc2)=N/C1=C\c1ccc2sccc2c1 [Example 72, (Z)-5-(benzo[b]thiophen-5-ylmethylene)-2-(phenylamino)-3,5-dihydro-4H-imidazol-4-one]
5.00 to 6.00	5.00 to 6.00	O=C1NC(NCCN2CCOCC2)=N/C1=C\c1ccc2ncsc2c1 [Example 29, (Z)-5-(benzo[d]thiazol-6-ylmethylene)-2-((2-morpholinoethyl)amino)-3,5-dihydro-4H-imidazol-4-one]
< 5.00	5.00 to 6.00	COc1ccc(N(C)C2=N/C(=C\c3ccc4ncsc4c3)C(=O)N2)cc1 [Example 38, (Z)-5-(benzo[d]thiazol-6-ylmethylene)-2-((4-methoxyphenyl)(methyl)amino)-3,5-dihydro-4H-imidazol-4-one]

SMILES	pIC50 (human GSK3 beta)	pIC50 (human HIPK2)
COc1ccc(N(C)C2=N/C(=C\c3ccc4c(c3)OCO4)C(=O)N2)cc1 [Example 12, (Z)-5-(benzo[d][1,3]dioxol-5-ylmethylene)-2-((4-methoxyphenyl)(methyl)amino)-3,5-dihydro-4H-imidazol-4-one]	< 5.00	< 5.00
O=C1NC(Nc2ccccc2)=N/C1=C\c1ccc2ncsc2c1 [Example 6, (Z)-5-(benzo[d]thiazol-6-ylmethylene)-2-(phenylamino)-3,5-dihydro-4H-imidazol-4-one]	6.00 to 7.00	6.00 to 7.00
O=C1/C(=C/c2ccc3ncsc3c2)N=C(N(Cc2ccccc2)c2ccccc2)N1Cc1ccccc1 [Example 42, (Z)-5-(benzo[d]thiazol-6-ylmethylene)-3-benzyl-2-(benzyl(phenyl)amino)-3,5-dihydro-4H-imidazol-4-one]	< 5.00	< 5.00
COc1ccccc1N(C)C1=N/C(=C\c2ccc3c(c2)OCO3)C(=O)N1 [Example 21, (Z)-5-(benzo[d][1,3]dioxol-5-ylmethylene)-2-((2-methoxyphenyl)(methyl)amino)-3,5-dihydro-4H-imidazol-4-one]	< 5.00	< 5.00
O=C1NC(Nc2ccccc2)=N/C1=C\c1ccc2scnc2c1 [Example 14, (Z)-5-(benzo[d]thiazol-5-ylmethylene)-2-(phenylamino)-3,5-dihydro-4H-imidazol-4-one]	< 5.00	< 5.00
O=C1NC(Nc2ccccc2)=N/C1=C\c1ccc2[nH]ccc2c1 [Example 51, (Z)-5-((1H-indol-5-yl)methylene)-2-(phenylamino)-3,5-dihydro-4H-imidazol-4-one]	< 5.00	< 5.00
O=C1NC(Nc2ccccc2)=N/C1=C\c1ccc2nn[nH]c2c1 [Example 56, (Z)-5-((1H-benzo[d][1,2,3]triazol-6-yl)methylene)-2-(phenylamino)-3,5-dihydro-4H-imidazol-4-one]	5.00 to 6.00	5.00 to 6.00
CC(C)NC1=N/C(=C\c2ccc3ncsc3c2)C(=O)N1C [Example 45, (Z)-5-(benzo[d]thiazol-6-ylmethylene)-2-(isopropylamino)-3-methyl-3,5-dihydro-4H-imidazol-4-one]	5.00 to 6.00	5.00 to 6.00
CN(C1=N/C(=C\c2ccc3c(c2)OC(F)(F)O3)C(=O)N1)c1ccccc1 [Example 17, (Z)-5-((2,2-difluorobenzo[d][1,3]dioxol-5-yl)methylene)-2-(methyl(phenyl)amino)-3,5-dihydro-4H-imidazol-4-one]	< 5.00	< 5.00
CN(CCN1CCOCC1)C1=N/C(=C\c2ccc3c(c2)OCO3)C(=O)N1 [Example 20, (Z)-5-(benzo[d][1,3]dioxol-5-ylmethylene)-2-(methyl(2-morpholinoethyl)amino)-3,5-dihydro-4H-imidazol-4-one]	5.00 to 6.00	< 5.00
